Assay results published in patent US9288991B2 (Rohm and Haas Company, priority 2012, dated 2016).

Experiments:
Chlorella sp. ATCC 7516 = experiment: Algal efficacy testing of dry paint film (modified ASTM 5589), Chlorella; format: cell-based
Description: (§1) These paints were then diluted with an antimicrobial free acrylic/silicone based paint and mixed to prepare targeted concentrations of antimicrobial compounds for the testing. The total biocides concentrations tested were 125, 250, 500, 1000, 2000 and 5000 ppm. After biocides addition or dilution, the paints were mixed 90 seconds with the horse power shaker (AXEL 75M3372/Agitateur SO-10MI) until uniformity was achieved. Paints containing different antimicrobial compounds at the same levels were mixed together in order to obtain the desired ratio of antimicrobial compounds. After one day, the paints were applied to Schleicher & Schuell filter paper at 280 μm wet film thickness and dried for 3 days at room temperature avoiding direct exposure to sunlight. Square discs (1.6 cm×1.6 cm) were cut out from each panel and were used as the substrate for algal efficacy tests. This sample size allowed for an agar border when the sample disc was placed into the well of the test plate.
(§2) Algal efficacy was tested according to modified ASTM 5589 which is a standard accelerated test method for determining resistance of various coatings (including paints) to algal defacement. To accommodate for high-throughput screening, this method was scaled down from petri dishes to 6-well plates. Bold Modified Basal Freshwater Nutrient Solution was used as growth medium. A single coated filter paper coupon was placed with a pair of sterile forceps at the center of the agar plug (on top) with the painted surface facing upwards. Algal inoculums were prepared by mixing equal concentrations (1×10^6 cfu/ml) and equal volumes of exponentially growing algae cultures.
(§3) Each well that contains a tested coupon was inoculated with 1750 μl of algal suspensions (1×10^6 cfu/ml) making sure that the whole surface (paint film as well as the agar surrounding it) was evenly covered. […]
(§4) At the end of the three week incubation period, the samples were scored for percent inhibition regarding visible algal growth compared to the blank sample (0% inhibition).
(§5) The SI is calculated based on F. C. […]

[1] = test system: Stichococcus bacillaris SAG 379-1a / CCAP 379/1a; experiment: Algal efficacy testing of dry paint film (modified ASTM 5589), Stichococcus; format: cell-based
Description: as §1, §2, §3, §4, §5

[2] = total active in paint, 3 weeks incubation, maximum tested conc given if pass not reached

With O=c1[nH]c2c(c(=O)n1C1CCCCC1)CCC2 [Lenacil, 3-cyclohexyl-1,5,6,7-tetrahydrocyclopentapyrimidine-2,4(3H)-dione] the inhibition at 5000 ppm (Chlorella sp. ATCC 7516; 504 h, total conc 5000 ppm, 3 weeks, visible algal growth vs blank) was 30% and the inhibition at 5000 ppm ([1]; Stichococcus bacillaris, 504 h, total conc 5000 ppm, 3 weeks, visible algal growth vs blank) was 70%.
With [O-][n+]1ccccc1[S][Zn][S]c1cccc[n+]1[O-] [ZnPT, bis(2-pyridylthio)zinc 1,1′-dioxide] the “Total conc (minimum inhibitory concentration chosen for SI; pass level ≧75% inhibition)” value (Chlorella sp. ATCC 7516; [2]) was 1000 ppm, the “% inhibition” value (Chlorella sp. ATCC 7516; total conc 1000 ppm, 3 weeks, visible algal growth vs blank) was 100% and the “Total conc (minimum inhibitory concentration chosen for SI; pass level ≧75% inhibition)” value [1, 2] was 500 ppm. For the same compound, the “% inhibition” value ([1]; total conc 500 ppm, 3 weeks, visible algal growth vs blank) was 75%.
